{"source": "patent US20120021445A1", "about": "“Pluripotent Stem Cells for Drug Induced Myopathy and Malignant Hyperthermia” (priority 2010, published 2012)", "origin": "cited, not measured here", "key": {"[1]": {"conditions": "rhabdomyolysis defined as acute elevation of CK (>15 000 ULN); unit not given"}}, "data": [{"smiles": "CC(C)c1c(C(=O)Nc2ccccc2)c(-c2ccccc2)c(-c2ccc(F)cc2)n1CC[C@@H](O)C[C@@H](O)CC(=O)O", "note": "[atrovarstatin]", "values": [{"measurement": "reported incidence of rhabdomyolysis", "setting": "[1]", "result": 0.04}]}, {"smiles": "O=C1CN(/N=C/c2ccc(-c3ccc([N+](=O)[O-])cc3)o2)C(O)=N1", "note": "[dantrolene]", "values": [{"measurement": "lack of efficacy in malignant hyperthermia patients", "result": "up to 5%"}]}, {"smiles": "CC[C@H](C)C(=O)O[C@H]1C[C@H](O)C=C2C=C[C@H](C)[C@H](CC[C@@H](O)C[C@@H](O)CC(=O)O)[C@H]21", "note": "[pravastatin]", "values": [{"measurement": "reported incidence of rhabdomyolysis", "setting": "[1]", "result": 0.04}]}, {"smiles": "CC[C@H](C)C(=O)O[C@H]1C[C@@H](C)C=C2C=C[C@H](C)[C@H](CC[C@@H]3C[C@@H](O)CC(=O)O3)[C@H]21", "note": "[lovostatin]", "values": [{"measurement": "reported incidence of rhabdomyolysis", "setting": "[1]", "result": 0.19}]}]}
